Laboratory results: patent US20080274544A1, “Promotor for Introducing Extracellular Substance into Mammalian Ovum and Introduction Method” (priority 2005, published 2008)
Entries after “also recorded” stand apart in the source; their conditions may differ.

Legend:
[1] = system: zona pellucida-free mouse unfertilized oocytes; test: In vitro fertilization of zona pellucida-free oocytes, sperm-oocyte fusion; format: cell-based; conditions: for number of sperm which fused with the oocytes: zona pellucida-free oocytes, 1 hr after insemination, oocytes cultured 1 hr in 20 μM vinblastine or 10 μM paclitaxel, compared with untreated control (FIG. 1)
Procedure: (§1) • (1) Mice of eight week-old or older were purchased and made adapted to grow environment for 1 week before use. PMS (Serotoropin exclusive to animal, manufactured by ASUKA Pharmaceutical) was injected in an amount of 0.1 ml into the abdominal cavity of the mouse at 8:00 pm. • (2) 48 hr later, HCG (Gonadotropin exclusive to animal, manufactured by ASUKA Pharmaceutical) was injected in an amount of 0.1 ml into the abdominal cavity. • (3) Mice were euthanized the next day (14 to 16 hr after HCG injection), and the ampulla of oviduct was removed. An oocyte surrounded by cumulus cells was collected and cultured in a (100 μL) drop of TYH medium. • (4) Cumulus cells were removed by hyaluronidase (300 μg/mL) treatment, then the oocyte was cultured in TYH medium for 3 hr. In the case of conducting removal of zona pellucida, oocyte zona pellucida was removed by an acid Tyrode's solution treatment followed by culturing the oocyte in TYH medium for 3 hr. 2. Treatment with a Tubulin-Polymerization Inhibitor
(§2) The collected unfertilized oocyte of the mice was treated by using vinblastine (VB) as a tubulin-polymerization inhibitor. As controls, an oocyte treated with paclitaxel (Pac; Brand Name: taxol), tubulin-polymerization promoter, and an untreated oocyte (control) were used. Vinblastine (VB) treatment was conducted by culturing the oocyte in 20 μM of vinblastine solution (TYH medium) for 1 hr, while paclitaxel (Pac) treatment was conducted by culturing the oocyte in 10 μM of paclitaxelel (Pac) solution (TYH medium) similarly for 1 hr.
The mouse unfertilized oocyte was treated with vinblastine (VB), a tubulin-polymerization inhibitor, and in vitro fertilization was conducted with mouse sperm. […]
(In the case where zona pellucida-free oocytes were use): To quantify sperm-oocyte fusion efficiency, zona pellucida-free mouse unfertilized oocytes were treated with vinblastine (VB), a tubulin-polymerization inhibitor, or paclitaxel (Pac), tubulin-polymerization promoter, or left untreated (control). […]

[2] = system: mouse unfertilized oocytes with zona pellucida; test: In vitro fertilization of oocytes with zona pellucida, fertilization efficiency; format: cell-based
Procedure: as §1, §2
The mouse unfertilized oocyte was treated with vinblastine (VB), a tubulin-polymerization inhibitor, and in vitro fertilization was conducted with mouse sperm. As controls, an unfertilized oocyte treated with paclitaxel (Pac; Brand Name: taxol), tubulin-polymerization promoter, and an untreated oocyte (control) were used. […]

SMILES | sperm-oocyte membrane fusion ([1]; mouse unfertilized oocyte treated with tubulin-polymerization promoter) | number of sperm which fused with the oocytes [1] | increase of fertilization efficiency compared to untreated oocytes ([2]; 2-cell-stage oocytes, oocytes cultured 1 hr in 20 μM vinblastine (FIG. 2)) [%] | fusion efficiency of oocytes treated with anti-mouse CD9 antibody having a fusion-inhibitory effect ([2]; vinblastine treatment together with anti-mouse CD9 antibody) | fusion of immature oocytes with sperm ([2]; vinblastine-treated immature oocytes)
CC(=O)O[C@H]1C(=O)[C@@]2(C)[C@H]([C@H](OC(=O)c3ccccc3)[C@]3(O)C[C@H](OC(=O)[C@H](O)[C@@H](NC(=O)c4ccccc4)c4ccccc4)C(C)=C1C3(C)C)[C@]1(OC(C)=O)CO[C@@H]1C[C@@H]2O [paclitaxel] | inhibited | not fused | – | – | –
CC[C@]1(O)C[C@@H]2CN(CCc3c([nH]c4ccccc34)[C@@](C(=O)OC)(c3cc4c(cc3OC)N(C)[C@H]3[C@@](O)(C(=O)OC)[C@H](OC(C)=O)[C@]5(CC)C=CCN6CC[C@]43[C@@H]65)C2)C1 [vinblastine] | – | largest number | 20 | increased | could be fused with sperm; also recorded: could fuse with sperm
